Reference: patent publication US4205163A, “Tylosin derivatives” (Sanraku-Ocean Co., Ltd., priority 1977, dated 1980)
≈ marks a conversion by molar mass, not a printed value. Read-outs that look alike come from different tables or passages of the source.

Legend:
[1] = system: Mycoplasma gallisepticum KP-13; assay: antibacterial activity against Mycoplasma; format: cell-based; details: Mycoplasmoides gallisepticum, KP13
Text: (§1) Furthermore the new antibiotics according to the present invention also show antimicrobial activity on Mycoplasma. In particular, it is noteworthy that they have much higher antimicrobial activity than tylosin on Mycoplasma that is resistant to macrolide antibiotics. Tab.
(§2) **Medium (Eiken PPLO Medium)

Sarcina lutea ATCC 9341 = assay: antimicrobial activity, broth dilution method; format: cell-based; details: for MIC: Micrococcus luteus, ATCC9341, Sarcina lutea ATCC 9341, read-out: minimum inhibitory concentration (MIC)
Method: (§3) Antimicrobial activity of the new antibiotics according to the present invention was measured on various pathogenic microorganisms by the broth dilution mehtod. Tab. […] The new antibiotics show a similar antimicrobial spectrum to that of tylosin as shown in Tab. 4. All the compounds have an excellent antimicrobial activity mainly on gram-positive bacteria. […] Test microorganisms with an asterisk mark (*) in Tab. 4 are all drug-resistant strains that were clinically isolated. More in detail, Staphylococcus aureus MS-8710 is resistant to tylosin, penicillin, tetracycline, erythromycin and leucomycin. Staphylococcus aureus MS-9931 is resistant to tylosin, penicillin, erythromycin, tetracycline, leucomycin, spiramycin and josamycin. And also Streptococcus piogenes is resistant to tylosin, erythromycin, oleandomycin and leucomycin.

[2] = system: Staphylococcus aureus SMITH; assay: antimicrobial activity, broth dilution method; format: cell-based; details: Staphylococcus aureus SMITH, broth dilution; for MIC: Staphylococcus aureus, read-out: minimum inhibitory concentration (MIC)
Method: as §3

[3] = system: Staphylococcus aureus MS-8710; assay: antimicrobial activity, broth dilution method; format: cell-based; details: for MIC: Staphylococcus aureus, MS8710, Staphylococcus aureus MS-8710, drug-resistant clinical isolate, read-out: minimum inhibitory concentration (MIC)
Method: as §3

[4] = system: Bacillus cereus ATCC 9634; assay: antimicrobial activity, broth dilution method; format: cell-based; details: broth dilution; for MIC: Bacillus cereus, ATCC9634, Bacillus cereus ATCC 9634, read-out: minimum inhibitory concentration (MIC)
Method: as §3

[5] = system: Staphylococcus aureus MS-9937; assay: antimicrobial activity, broth dilution method; format: cell-based; details: Staphylococcus aureus MS-9937, drug-resistant clinical isolate; for MIC: MS9937, read-out: minimum inhibitory concentration (MIC)
Method: as §3

[6] = system: Streptococcus pyogenes MH-771; assay: antimicrobial activity, broth dilution method; format: cell-based; details: for MIC: Streptococcus pyogenes, MH771, Streptococcus pyogenes MH-771, drug-resistant clinical isolate, read-out: minimum inhibitory concentration (MIC)
Method: as §3

[7] = system: Staphylococcus aureus MS-9931; assay: antimicrobial activity, broth dilution method; format: cell-based; details: Staphylococcus aureus MS-9931, drug-resistant clinical isolate; for MIC: MS9931, read-out: minimum inhibitory concentration (MIC)
Method: as §3

[8] = system: Staphylococcus aureus FDA-209P; assay: antimicrobial activity, broth dilution method; format: cell-based; details: Staphylococcus aureus FDA-209P, broth dilution; for MIC: Staphylococcus aureus, FDA209P, read-out: minimum inhibitory concentration (MIC)
Method: as §3

[9] = system: Mycoplasma gallisepticum A-72; assay: antibacterial activity against Mycoplasma; format: cell-based; details: Mycoplasmoides gallisepticum, A72; strain A-72, macrolide resistant; Eiken PPLO Medium
Text: as §1
(§4) *Macrolide resistant strain
as §2

[10] = system: Mycoplasma gallisepticum E-11; assay: antibacterial activity against Mycoplasma; format: cell-based; details: Mycoplasmoides gallisepticum, E11
Text: as §1, §4, §2

[11] = system: Mycoplasma gallisepticum E-5; assay: antibacterial activity against Mycoplasma; format: cell-based; details: Mycoplasmoides gallisepticum, E5
Text: as §1, §4, §2

in vivo = details: mouse, po, 100 mg/kg
Method: The new antibiotics according to the present invention were each orally administered to mice at a dose of 100 mg/kg. Each blood level was then measured and compared with those of tylosin and 3-acetyltylosin.

[12] = strain KP-13, Eiken PPLO Medium, read-out: MIC
[13] = strain E-11, macrolide resistant, Eiken PPLO Medium, read-out: MIC
[14] = strain E-5, macrolide resistant, Eiken PPLO Medium, read-out: MIC

CCC1OC(=O)CC(O)C(C)C(OC2OC(C)C(OC3CC(C)(O)C(OC(=O)CSC4CCCCC4)C(C)O3)C(N(C)C)C2O)C(CC=O)CC(C)C(=O)C=CC(C)=CC1COC1OC(C)C(O)C(OC)C1OC (stereo not shown) [Compound 40, 4"-cyclohexylthioacetyltylosin]
MIC [1, 12]: 0.078 µg/mL (≈ 0.0727 µM)
MIC (Sarcina lutea ATCC 9341): 0.39 µg/mL (≈ 0.364 µM)
MIC [2]: 0.78 µg/mL (≈ 0.727 µM)
MIC [3]: 12.5 µg/mL (≈ 11.7 µM)
MIC [4]: 0.78 µg/mL (≈ 0.727 µM)
MIC [5]: 25 µg/mL (≈ 23.3 µM)
MIC [6]: 6.25 µg/mL (≈ 5.83 µM)
MIC [7]: 12.5 µg/mL (≈ 11.7 µM)
MIC [8]: 0.78 µg/mL (≈ 0.727 µM)
MIC [9]: 0.157 µg/mL (≈ 0.146 µM)
MIC [10]: 0.157 µg/mL (≈ 0.146 µM)
MIC [11]: 0.157 µg/mL (≈ 0.146 µM)

CCC1OC(=O)CC(O)C(C)C(OC2OC(C)C(OC3CC(C)(O)C(OC(=O)CCC4CCCCC4)C(C)O3)C(N(C)C)C2O)C(CC=O)CC(C)C(=O)C=CC(C)=CC1COC1OC(C)C(O)C(OC)C1OC (stereo not drawn) [Compound 29, 4"-β-cyclohexylpropionyl tylosin]
MIC [1, 12]: 0.039 µg/mL (≈ 0.037 µM)
MIC (Sarcina lutea ATCC 9341): 0.39 µg/mL (≈ 0.37 µM)
MIC [2]: 0.78 µg/mL (≈ 0.74 µM)
MIC [3]: 12.5 µg/mL (≈ 11.9 µM)
MIC [4]: 0.78 µg/mL (≈ 0.74 µM)
MIC [5]: 12.5 µg/mL (≈ 11.9 µM)
MIC [6]: 6.25 µg/mL (≈ 5.93 µM)
MIC [7]: 12.5 µg/mL (≈ 11.9 µM)
MIC [8]: 0.78 µg/mL (≈ 0.74 µM)
MIC [9]: 0.313 µg/mL (≈ 0.297 µM)
MIC [10, 13]: 0.625 µg/mL (≈ 0.593 µM)
MIC [11]: 0.313 µg/mL (≈ 0.297 µM)

CCC1OC(=O)CC(OC(C)=O)C(C)C(OC2OC(C)C(OC3CC(C)(O)C(O)C(C)O3)C(N(C)C)C2O)C(CC=O)CC(C)C(=O)C=CC(C)=CC1COC1OC(C)C(O)C(OC)C1OC (stereo not shown) [3-acetyltylosin, reference compound]
Cmax (in vivo): 2000 to 5000 ng/mL
MIC (Sarcina lutea ATCC 9341): 0.19 µg/mL (≈ 0.198 µM)
MIC [2]: 0.39 µg/mL (≈ 0.407 µM)
MIC [3]: 200 µg/mL (≈ 209 µM)
MIC [4]: 0.78 µg/mL (≈ 0.814 µM)
MIC [5]: 100 µg/mL (≈ 104 µM)
MIC [6]: 200 µg/mL (≈ 209 µM)
MIC [7]: 200 µg/mL (≈ 209 µM)
MIC [8]: 0.39 µg/mL (≈ 0.407 µM)

CCC1OC(=O)CC(OC(C)=O)C(C)C(OC2OC(C)C(OC3CC(C)(O)C(OC(=O)CN(C(C)=O)c4ccccc4)C(C)O3)C(N(C)C)C2O)C(CC=O)CC(C)C(=O)C=CC(C)=CC1COC1OC(C)C(O)C(OC)C1OC (stereo not shown) [Compound 32, 3-acetyl-4"-(N-acetylanilino)acetyltylosin]
MIC [1]: 0.157 µg/mL (≈ 0.139 µM)
MIC (Sarcina lutea ATCC 9341): 0.39 µg/mL (≈ 0.344 µM)
MIC [2]: 0.78 µg/mL (≈ 0.688 µM)
MIC [3]: 12.5 µg/mL (≈ 11 µM)
MIC [4]: 0.78 µg/mL (≈ 0.688 µM)
MIC [5]: 25 µg/mL (≈ 22.1 µM)
MIC [6]: 12.5 µg/mL (≈ 11 µM)
MIC [7]: 25 µg/mL (≈ 22.1 µM)
MIC [8]: 0.78 µg/mL (≈ 0.688 µM)
MIC [9]: 0.157 µg/mL (≈ 0.139 µM)
MIC [10, 13]: 0.313 µg/mL (≈ 0.276 µM)
MIC [11, 14]: 0.313 µg/mL (≈ 0.276 µM)

CCC1OC(=O)CC(O)C(C)C(OC2OC(C)C(OC3CC(C)(O)C(OC(=O)CSc4ccncc4)C(C)O3)C(N(C)C)C2O)C(CC=O)CC(C)C(=O)C=CC(C)=CC1COC1OC(C)C(O)C(OC)C1OC (stereo not shown) [Compound 41, 4"-(4-pyridyl)thioacetyltylosin]
MIC [1, 12]: 0.039 µg/mL (≈ 0.0365 µM)
MIC (Sarcina lutea ATCC 9341): 0.19 µg/mL (≈ 0.178 µM)
MIC [2]: 0.39 µg/mL (≈ 0.365 µM)
MIC [3]: 12.5 µg/mL (≈ 11.7 µM)
MIC [4]: 0.39 µg/mL (≈ 0.365 µM)
MIC [5]: 12.5 µg/mL (≈ 11.7 µM)
MIC [6]: 12.5 µg/mL (≈ 11.7 µM)
MIC [7]: 12.5 µg/mL (≈ 11.7 µM)
MIC [8]: 0.78 µg/mL (≈ 0.731 µM)
MIC [9]: 0.157 µg/mL (≈ 0.147 µM)
MIC [10, 13]: 0.313 µg/mL (≈ 0.293 µM)
MIC [11, 14]: 0.313 µg/mL (≈ 0.293 µM)

3-acetyl-4"-(1-imidazolyl)propionyltylosin [Compound 33]
minimum inhibitory concentration (MIC) (Sarcina lutea ATCC 9341; Sarcina lutea ATCC 9341): 0.78 µg/mL
minimum inhibitory concentration (MIC) [2]: 1.56 µg/mL
minimum inhibitory concentration (MIC) ([3]; Staphylococcus aureus MS-8710, drug-resistant clinical isolate): 25 µg/mL
minimum inhibitory concentration (MIC) ([4]; Bacillus cereus ATCC 9634): 1.56 µg/mL
minimum inhibitory concentration (MIC) [5]: 50 µg/mL
minimum inhibitory concentration (MIC) ([6]; Streptococcus pyogenes MH-771, drug-resistant clinical isolate): 12.5 µg/mL
minimum inhibitory concentration (MIC) [7]: 50 µg/mL
minimum inhibitory concentration (MIC) [8]: 1.56 µg/mL

CCOC(=O)OC1C(C)OC(OCC2C=C(C)C=CC(=O)C(C)CC(CC=O)C(OC3OC(C)C(OC4CC(C)(O)C(O)C(C)O4)C(N(C)C)C3OC(C)=O)C(C)C(OC(C)=O)CC(=O)OC2CC)C(OC)C1OC (stereo not shown) [Compound 6, 3,2'-diacetyl-4'"-carboethoxytylosin]
MIC (Sarcina lutea ATCC 9341): 0.39 µg/mL (≈ 0.364 µM)
MIC [2]: 0.78 µg/mL (≈ 0.727 µM)
MIC [3]: 100 µg/mL (≈ 93.3 µM)
MIC [4]: 0.78 µg/mL (≈ 0.727 µM)
MIC [5]: 100 µg/mL (≈ 93.3 µM)
MIC [6]: 100 µg/mL (≈ 93.3 µM)
MIC [7]: 100 µg/mL (≈ 93.3 µM)
MIC [8]: 0.78 µg/mL (≈ 0.727 µM)
